From patent US10131652B2, “Pyrimidinyloxy benzene derivatives as herbicides” (E. I. DU PONT DE NEMOURS AND COMPANY, priority 2014, dated 2018)

Key:
Assay type in all cases: in vivo
[1] = test system: morningglory (Ipomoea coccinea); experiment: Test D pre-/postemergence plant response
Procedure, shortened: (§1)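 Seeds were planted in a loam and sand blend and sprayed preemergence. In parallel, seedlings grown in peat moss/vermiculite medium were sprayed postemergence at 2 to 18 cm height. Both used a surfactant-containing non-phytotoxic solvent. Greenhouse ratings at 13 to 15 days used a 0–100 control scale.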

[2] = test system: barnyardgrass (Echinochloa crus-galli); experiment: Test D pre-/postemergence plant response
Procedure, shortened: as §1

[3] = test system: giant foxtail (Setaria faberii); experiment: Test D pre-/postemergence plant response
Procedure, shortened: as §1

[4] = test system: pigweed (Amaranthus retroflexus); experiment: Test D pre-/postemergence plant response
Procedure, shortened: as §1

[5] = test system: Italian ryegrass (Lolium multiflorum); experiment: Test D pre-/postemergence plant response
Procedure, shortened: as §1

[6] = test system: corn (Zea mays); experiment: Test D pre-/postemergence plant response
Procedure, shortened: as §1

[7] = test system: soybean (Glycine max); experiment: Test D pre-/postemergence plant response
Procedure, shortened: as §1

[8] = test system: velvetleaf (Abutilon theophrasti); experiment: Test D pre-/postemergence plant response
Procedure, shortened: as §1

[9] = test system: large (Lg) crabgrass (Digitaria sanguinalis); experiment: Test D pre-/postemergence plant response
Procedure, shortened: as §1

[10] = test system: waterhemp (common waterhemp, Amaranthus rudis); experiment: Test D pre-/postemergence plant response
Procedure, shortened: as §1

[11] = test system: blackgrass (Alopecurus myosuroides); experiment: Test D pre-/postemergence plant response
Procedure, shortened: as §1

[12] = test system: lambsquarters (Chenopodium album); experiment: Test D pre-/postemergence plant response
Procedure, shortened: as §1

[13] = test system: Italian ryegrass (Lolium multiflorum); experiment: Test B pre-/postemergence plant response
Procedure, shortened: (§2)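 Visual injury scores on a 0–100 scale (100 = complete control) relative to untreated plants, taken about 10 days post-treatment in greenhouse. Treatments were a directed preemergence soil spray and a postemergence spray at one- to two-leaf stage, using surfactant-containing solvent formulation.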

[14] = test system: kochia (Kochia scoparia); experiment: Test B pre-/postemergence plant response
Procedure, shortened: as §2

[15] = test system: ragweed (common ragweed, Ambrosia elatior); experiment: Test B pre-/postemergence plant response
Procedure, shortened: as §2

[16] = Postemergence, 16 g ai/ha, scale 0 to 100 (0 no effect, 100 complete control)
[17] = Postemergence, 31 g ai/ha, scale 0 to 100 (0 no effect, 100 complete control)
[18] = Postemergence, 62 g ai/ha, scale 0 to 100, 0 no effect, 100 complete control
[19] = Postemergence, 125 g ai/ha, scale 0 to 100, 0 no effect, 100 complete control
[20] = Preemergence, 16 g ai/ha, scale 0 to 100 (0 no effect, 100 complete control)
[21] = Preemergence, 31 g ai/ha, scale 0 to 100 (0 no effect, 100 complete control)
[22] = Preemergence, 62 g ai/ha, scale 0 to 100 (0 no effect, 100 complete control)
[23] = 125 g ai/ha, postemergence, 0 to 100 scale, 0 no effect, 100 complete control
[24] = Postemergence, 500 g ai/ha, 0 to 100 scale (0 no effect, 100 complete control)
[25] = Preemergence, 125 g ai/ha, 0 to 100 scale where 0 is no effect and 100 is complete control
[26] = Preemergence, 500 g ai/ha, 0 to 100 scale where 0 is no effect and 100 is complete control
[27] = 31 g ai/ha, Preemergence, 0 to 100 scale where 0 is no effect and 100 is complete control
[28] = Postemergence, 31 g ai/ha, 0 to 100 scale (0 no effect, 100 complete control)
[29] = Preemergence, 125 g ai/ha, 0 to 100 scale (0 no effect, 100 complete control)

Cc1cc(-c2ccccc2Oc2ncc(Cl)cn2)on1 [Compound 58]
Morningglory plant response rating [1, 16]: 20 | Morningglory plant response rating [1, 17]: 45 | Plant response rating, Morningglory [1, 18]: 45 | Plant response rating, Morningglory [1, 19]: 65 | Plant response rating (scale 0 to 100), Morningglory ([1]; Preemergence, 125 g ai/ha): 45 | Plant response rating, Morningglory [1, 20]: 10 | Plant response rating, Morningglory [1, 21]: 25 | Plant response rating, Morningglory [1, 22]: 0 | Barnyardgrass plant response rating [2, 16]: 0 | Barnyardgrass plant response rating [2, 17]: 0 | Plant response rating, Barnyardgrass [2, 18]: 0 | Plant response rating, Barnyardgrass [2, 19]: 5 | Plant response rating (scale 0 to 100), Barnyardgrass ([2]; Preemergence, 62 g ai/ha): 65 | Plant response rating (scale 0 to 100), Barnyardgrass ([2]; Preemergence, 125 g ai/ha): 80 | Plant response rating, Barnyardgrass [2, 20]: 5 | Plant response rating, Barnyardgrass [2, 21]: 5 | Foxtail, Giant plant response rating [3, 16]: 0 | Foxtail, Giant plant response rating [3, 17]: 0 | Plant response rating, Foxtail, Giant [3, 18]: 15 | Plant response rating, Foxtail, Giant [3, 19]: 30 | Plant response rating (scale 0 to 100), Foxtail, Giant ([3]; Preemergence, 125 g ai/ha): 98 | Plant response rating, Foxtail, Giant [3, 20]: 0 | Plant response rating, Foxtail, Giant [3, 21]: 15 | Plant response rating, Foxtail, Giant [3, 22]: 85 | Pigweed plant response rating [4, 16]: 20 | Pigweed plant response rating [4, 17]: 25 | Plant response rating, Pigweed [4, 18]: 40 | Plant response rating, Pigweed [4, 19]: 75 | Plant response rating (scale 0 to 100), Pigweed ([4]; Preemergence, 125 g ai/ha): 100 | Plant response rating, Pigweed [4, 20]: 50 | Plant response rating, Pigweed [4, 21]: 100 | Plant response rating, Pigweed [4, 22]: 100 | Ryegrass, Italian plant response rating [5, 16]: 0 | Ryegrass, Italian plant response rating [5, 17]: 0 | Plant response rating, Ryegrass, Italian [5, 18]: 0 | Plant response rating, Ryegrass, Italian [5, 19]: 0 | Plant response rating (scale 0 to 100), Ryegrass, Italian ([5]; Preemergence, 125 g ai/ha): 5 | Plant response rating, Ryegrass, Italian [5, 20]: 0 | Plant response rating, Ryegrass, Italian [5, 21]: 0 | Plant response rating, Ryegrass, Italian [5, 22]: 0 | Corn plant response rating [6, 16]: 0 | Corn plant response rating [6, 17]: 0 | Plant response rating, Corn [6, 18]: 5 | Plant response rating, Corn [6, 19]: 5 | Plant response rating (scale 0 to 100), Corn ([6]; Preemergence, 125 g ai/ha): 20 | Plant response rating, Corn [6, 20]: 5 | Plant response rating, Corn [6, 21]: 20 | Plant response rating, Corn [6, 22]: 10 | Soybean plant response rating [7, 16]: 55 | Soybean plant response rating [7, 17]: 40 | Plant response rating, Soybean [7, 18]: 60 | Plant response rating, Soybean [7, 19]: 75 | Plant response rating (scale 0 to 100), Soybean ([7]; Preemergence, 125 g ai/ha): 85 | Plant response rating, Soybean [7, 20]: 30 | Plant response rating, Soybean [7, 21]: 35 | Plant response rating, Soybean [7, 22]: 80 | Velvetleaf plant response rating [8, 16]: 60 | Velvetleaf plant response rating [8, 17]: 35 | Plant response rating, Velvetleaf [8, 18]: 60 | Plant response rating, Velvetleaf [8, 19]: 85 | Plant response rating (scale 0 to 100), Velvetleaf ([8]; Preemergence, 125 g ai/ha): 100 | Plant response rating, Velvetleaf [8, 20]: 85 | Plant response rating, Velvetleaf [8, 21]: 100 | Plant response rating, Velvetleaf [8, 22]: 100 | Crabgrass, Large plant response rating [9, 16]: 5 | Crabgrass, Large plant response rating [9, 17]: 5 | Plant response rating, Crabgrass, Large [9, 18]: 5 | Plant response rating, Crabgrass, Large [9, 19]: 5 | Plant response rating (scale 0 to 100), Crabgrass, Large ([9]; Preemergence, 125 g ai/ha): 100 | Plant response rating, Crabgrass, Large [9, 20]: 25 | Plant response rating, Crabgrass, Large [9, 21]: 90 | Plant response rating, Crabgrass, Large [9, 22]: 100 | Waterhemp plant response rating [10, 16]: 35 | Waterhemp plant response rating [10, 17]: 40 | Plant response rating, Waterhemp [10, 18]: 55 | Plant response rating, Waterhemp [10, 19]: 75 | Plant response rating (scale 0 to 100), Waterhemp ([10]; Preemergence, 125 g ai/ha): 100 | Plant response rating, Waterhemp [10, 20]: 100 | Plant response rating, Waterhemp [10, 21]: 100 | Plant response rating, Waterhemp [10, 22]: 100 | Blackgrass plant response rating [11, 16]: 0 | Blackgrass plant response rating [11, 17]: 0 | Plant response rating, Blackgrass [11, 18]: 0 | Plant response rating, Blackgrass [11, 19]: 5 | Plant response rating (scale 0 to 100), Blackgrass ([11]; Preemergence, 125 g ai/ha): 95 | Plant response rating, Blackgrass [11, 20]: 0 | Plant response rating, Blackgrass [11, 21]: 5 | Plant response rating, Blackgrass [11, 22]: 80 | Lambsquarters plant response rating [12, 16]: 10 | Lambsquarters plant response rating [12, 17]: 75 | Plant response rating, Lambsquarters [12, 18]: 60 | Plant response rating, Lambsquarters [12, 19]: 90 | Plant response rating (scale 0 to 100), Lambsquarters ([12]; Preemergence, 125 g ai/ha): 100 | Plant response rating, Lambsquarters [12, 20]: 25 | Plant response rating, Lambsquarters [12, 21]: 100 | Plant response rating, Lambsquarters [12, 22]: 100 | Plant response rating, Ryegrass, Italian [13, 23]: 20 | Plant response rating, Ryegrass, Italian [13, 24]: 80 | Plant response rating, Ryegrass, Italian [13, 25]: 0 | Plant response rating, Ryegrass, Italian [13, 26]: 20 | Plant response rating, Kochia [14, 23]: 100 | Plant response rating, Kochia [14, 24]: 100 | Plant response rating, Kochia [14, 25]: 80 | Plant response rating, Kochia [14, 26]: 100 | Plant response rating, Ragweed [15, 23]: 100 | Plant response rating, Ragweed [15, 24]: 100 | Plant response rating, Ragweed [15, 25]: 70 | Plant response rating, Ragweed [15, 26]: 80

FC(Cl)(Cl)c1cc(-c2ccccc2Oc2ncc(Cl)cn2)no1 [Compound 198]
Plant response rating (scale 0 to 100), Morningglory ([1]; Postemergence, 16 g ai/ha): 55 | Morningglory plant response rating [1, 17]: 55 | Morningglory plant response rating [1, 18]: 80 | Plant response rating, Morningglory [1, 19]: 85 | Plant response rating (scale 0 to 100), Barnyardgrass ([2]; Postemergence, 16 g ai/ha): 10 | Barnyardgrass plant response rating [2, 17]: 10 | Plant response rating, Barnyardgrass [2, 18]: 20 | Plant response rating, Barnyardgrass [2, 19]: 35 | Plant response rating (scale 0 to 100), Foxtail, Giant ([3]; Postemergence, 16 g ai/ha): 10 | Foxtail, Giant plant response rating [3, 17]: 15 | Plant response rating, Foxtail, Giant [3, 18]: 15 | Plant response rating, Foxtail, Giant [3, 19]: 25 | Plant response rating (scale 0 to 100), Pigweed ([4]; Postemergence, 16 g ai/ha): 85 | Pigweed plant response rating [4, 17]: 98 | Pigweed plant response rating [4, 18]: 90 | Plant response rating, Pigweed [4, 19]: 100 | Plant response rating (scale 0 to 100), Ryegrass, Italian ([5]; Postemergence, 16 g ai/ha): 0 | Ryegrass, Italian plant response rating [5, 17]: 0 | Ryegrass, Italian plant response rating [5, 18]: 10 | Plant response rating, Ryegrass, Italian [5, 19]: 10 | Plant response rating (scale 0 to 100), Corn ([6]; Postemergence, 16 g ai/ha): 5 | Corn plant response rating [6, 17]: 10 | Plant response rating, Corn [6, 18]: 15 | Plant response rating, Corn [6, 19]: 15 | Plant response rating (scale 0 to 100), Soybean ([7]; Postemergence, 16 g ai/ha): 10 | Soybean plant response rating [7, 17]: 25 | Soybean plant response rating [7, 18]: 30 | Plant response rating, Soybean [7, 19]: 60 | Plant response rating (scale 0 to 100), Velvetleaf ([8]; Postemergence, 16 g ai/ha): 50 | Velvetleaf plant response rating [8, 17]: 45 | Velvetleaf plant response rating [8, 18]: 55 | Plant response rating, Velvetleaf [8, 19]: 55 | Plant response rating (scale 0 to 100), Crabgrass, Large ([9]; Postemergence, 16 g ai/ha): 10 | Crabgrass, Large plant response rating [9, 17]: 15 | Plant response rating, Crabgrass, Large [9, 18]: 20 | Plant response rating, Crabgrass, Large [9, 19]: 30 | Plant response rating (scale 0 to 100), Waterhemp ([10]; Postemergence, 16 g ai/ha): 85 | Waterhemp plant response rating [10, 17]: 85 | Waterhemp plant response rating [10, 18]: 95 | Plant response rating, Waterhemp [10, 19]: 98 | Plant response rating (scale 0 to 100), Blackgrass ([11]; Postemergence, 16 g ai/ha): 5 | Blackgrass plant response rating [11, 17]: 5 | Plant response rating, Blackgrass [11, 18]: 10 | Plant response rating, Blackgrass [11, 19]: 15 | Plant response rating (scale 0 to 100), Lambsquarters ([12]; Postemergence, 16 g ai/ha): 10 | Lambsquarters plant response rating [12, 17]: 55 | Lambsquarters plant response rating [12, 18]: 70 | Plant response rating, Lambsquarters [12, 19]: 75 | Plant response rating, Ryegrass, Italian [13, 27]: 0 | Plant response rating, Ryegrass, Italian [13, 23]: 50 | Plant response rating, Ryegrass, Italian [13, 28]: 10 | Ryegrass, Italian plant response rating [13, 29]: 20 | Plant response rating, Kochia [14, 27]: 0 | Plant response rating, Kochia [14, 23]: 80 | Plant response rating, Kochia [14, 28]: 80 | Kochia plant response rating [14, 29]: 30 | Plant response rating, Ragweed [15, 27]: 0 | Plant response rating, Ragweed [15, 23]: 20 | Plant response rating, Ragweed [15, 28]: 10 | Ragweed plant response rating [15, 29]: 10
